From patent publication US20140186329A1, “POLYPHENOL ANALOGS TO TREAT ISCHEMIA” (priority 2011, published 2014)
Read-outs that look alike come from different tables or passages of the source.

Columns and labels:
[1] = system: primary mouse cortical neurons; experiment: Primary cortical cell glutamate excitotoxicity assay; format: cell-based; details: 10 μM glutamate, compound 100 nM
Experimental: (§1) FIG. 5 illustrates pharmacological effects of Baicalein on cultured cells. (A) Trophic factor withdrawal. Primary cortical neurons are prepared from 18-day-old rat embryos, and cultured at low cell density 1×10^6/35 mm dish, in serum containing medium with Baicalein (10-10,000 nM), and viability assayed 2 days later using a live-dead assay. (B) Excitotoxicity assay was done with E14 mouse primary cortical neuron cultures. After 11 days of culture, cells were exposed to 10 μM glutamate for 10 min, followed by the addition of varying concentrations of Baicalein (0.2-5 μM). Cell viability was determined 24 hr later with a standard MTT assay. (C) PC12 cells were glucose-deprived then were incubates in the absence or presence of Baicalein. Cell viability was determined 24 hr later using the MTT assay. (D) RCG-5 nerve cells were treated with 30 μM iodoacetic acid for 2 hr in the presence or absence of 5-25 μM Baicalein. In some experiments, Baicalein was added 2 hr after the ischemic event. Cell survival (%) was measured after 24 hr by the MTT assay. Baicalein added before (□) or 2 hr after ([…]) ischemia.
Primary cultures of cortical neurons that die due to excitotoxicity were prepared as described previously. Briefly, BALB/c mouse embryo cortices were minced and treated with 0.1% trypsin for 20 min. After centrifugation, the cells are resuspended in 827 Neurobasal medium (Invitrogen) plus 10% fetal calf serum and are dissociated by repeated pipetting through a 1 mL blue Eppendorf pipette tip. Then the cells are plated at 1×10^5 cells per well in 96-well poly-L-lysine and laminin-coated microtiter plates (Becton Dickinson, Bedford, Mass., USA) in 827 Neurobasal plus 10% fetal calf serum and 20% glial growth-conditioned medium. Two days later the medium is aspirated and replaced by serum-free 827 Neurobasal medium plus 10 μg/mL cytosine arabinoside. The cultures are used without media change 11 days after plating and are essentially free of astrocytes. They are exposed to 10 μM glutamate followed by varying concentrations of the compounds. Cell viability is determined 24 h later using the fluorescent live/dead assay. Glial conditioned medium is prepared from confluent rat astrocyte cultures. The cells are washed twice with serum-free medium and incubated for 2 days in serum-free Neurobasal medium to produce the growth conditioned medium.
(1) ≧80% cell survival in mouse HT22 hippocampal cells in the presence of 20 μM iodoacetic acid (IAA) (in vitro ischemia model). See, Maher, et al., Brain Res. 2007, 1173:117-25. (2) ≧35% cell survival in primary mouse cortical neurons in the presence of 10 μM glutamate (in vitro excitotoxicity assay). See, Ishige, et al., Free Radic Biol Med, 2001, 30(4): p. 433-46.

HT22 cells = experiment: In vitro ischemia assay (HT22 cell IAA assay, MTT); format: cell-based, mouse; details: 20 μM IAA; for EC50: read-out: HT22 Cell IAA assay EC50; for percent protection from IAA-induced cell death at 0.1 µM: HT-22, compound 100 nM
Procedure, shortened: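 Mouse HT22 hippocampal cells in DMEM/7.5% DFCS exposed 2 hr to 20 μM iodoacetic acid with or without derivative, then 20 hr in IAA-free medium still containing derivative. Viability by MTT (2.5 μg/ml, 4 hr, 37 °C), absorbance at 570 nm.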

PC12 cells = experiment: Glucose starvation; format: cell-based; details: MTT 24 hr
Experimental: as §1, with “ischemia. […] When these cells are starved for glucose, there is approximately 70% maximal survival in the presence of NGF. Baicalein promotes over 80% survival (FIG. 5C).” for “ischemia.”

Molecule | Primary Cortical Cell assay-Glutamate (% protection @ 100 nM) [1] | EC50 (HT22 cells; HT22 cells) | percent protection from IAA-induced cell death at 0.1 µM (HT22 cells; Mus musculus) | EC50 (HT22 cells; Mus musculus, HT-22, HT22 cells) | survival of glucose-starved cells (PC12 cells)
CCc1ccc2oc(-c3ccc(O)c(O)c3)c(O)c(=O)c2c1 [PM-013, 2-(3,4-dihydroxyphenyl)-6-ethyl-3-hydroxy-4H-chromen-4-one] | 51% | 0.061 µM | 81% |  | 
Cc1ccc2oc(-c3ccc(O)c(O)c3)c(O)c(=O)c2c1 [PM-010, 2-(3,4-dihydroxyphenyl)-3-hydroxy-6-methyl-4H-chromen-4-one] | 65% | 0.046 µM | 89% |  | 
CCCc1ccc2oc(-c3ccc(O)c(O)c3)c(O)c(=O)c2c1 [PM-012, 2-(3,4-dihydroxyphenyl)-3-hydroxy-6-propyl-4H-chromen-4-one] | 82% | 0.061 µM | 80% | 0.038 µM | 
NGF: NGF, comparator in the PC12 glucose starvation assay |  |  |  |  | approximately 70%
O=c1cc(-c2cc(O)c(O)c(O)c2)oc2ccccc12 [PM-008, 3′,4′,5′-trihydroxyflavone] | 100% | 0.042 µM | 88% |  | 
